Data as given in patent publication US20240270744A1 (Hoffmann-La Roche Inc., priority 2021, published 2024).
Where two headings read alike, the source gives them in different places.

Key:
[1] = target: human GABAA α1β3γ2 receptor (Homo sapiens (Human), UniProt P14867+P18507); assay: Radioligand binding assay, competition for [3H]Flumazenil, γ2-containing GABAA subtypes; details: read-out: Ki h-GABAA α1β3γ2
Experimental: The affinity of compounds at GABAA γ2 subunit-containing receptors was measured by competition for [^3H]Flumazenil (81.1 Ci/mmol; Roche) binding to HEK293F cells expressing human (transiently transfected) receptors of composition α1β3γ2.
Harvested pellets from HEK293F cells expressing the different GABAA γ2 receptor subtypes were resuspended in Mannitol Buffer pH 7.2-7.4 and processed as described above for the cells expressing the GABAA γ1 subunit-containing receptors.
Assays were incubated to equilibrium for 1 hour at 4° C. and harvested onto GF/C uni-filters (Packard) by filtration using a Packard harvester and washing with ice-cold wash buffer (50 mM Tris; pH 7.5). After anhydrousing, filter-retained radioactivity was detected by liquid scintillation counting. Ki values were calculated using Excel-Fit (Microsoft) and are the means of two determinations.

h-GABA-A α2β2γ1 = h-GABA-A α2β2γ1 (Homo sapiens (Human), UniProt P47869+Q8N1C3); assay: Two-electrode voltage clamp electrophysiology in Xenopus oocytes expressing GABAA receptors; format: cell-based; details: Table 2; for Efficacy (GABA) %: % modulation of GABA EC20 = 100*(Fold increase-1), compound at 30-fold Ki; for Fold increase h-GABA-A α2β2γ1 oocyte @ 30-fold Ki: GABA EC20, test compound at approx. 30-fold its Ki α2β2γ1, Xenopus oocytes, -80 mV
Experimental: Xenopus laevis oocytes at maturation stages V-VI were used for the expression of cloned mRNA encoding GABAA receptor subunits. Oocytes ready for RNA micro-injection were bought from Ecocyte, Castrop-Rauxel, Germany and stored in modified Barth's medium (composition in mM: NaCl 88, KCl 1, NaHCO3 2.4, HEPES 10, MgSO4 0.82, CaNO3 0.33, CaCl2 0.33, pH=7.5) at 20° C. until the experiment.
Oocytes were plated in 96-well plates for microinjection using the Roboinject automated instrument (MultiChannelSystems, Reutlingen, Germany). Approximately 50 nL of an aqueous solution containing the RNA transcripts for the subunits of the desired GABAA receptor subtype was injected into each oocyte. […] Oocytes were kept in modified Barth's medium (composition in mM: NaCl 88, KCl 1, NaHCO3 […], HEPES 10, MgSO4 0.82, CaNO3 0.33, CaCl2 0.33, pH=7.5) at 20° C. until the experiment.
Electrophysiological experiments were performed using the Roboocyte instrument (MultiChannelSystems, Reutlingen, Germany) on days 3 to 5 after the micro-injection of mRNA. During the experiment the oocytes were constantly superfused by a solution containing (in mM) NaCl 90, KCl 1, HEPES 5, MgCl2 1, CaCl2 1 (pH 7.4). Oocytes were impaled by two glass microelectrodes (resistance: […]) which were filled with a solution containing KCl 1M+K-acetate 1.5 M and voltage-clamped to −80 mV. The recordings were performed at room temperature using the Roboocyte two-electrode voltage clamp system (Multichannelsystem). After an initial equilibration period of 1.5 min GABA was added for 1.5 min at a concentration evoking approximately 20% of a maximal current response (EC20). After another rest interval of 2.5 min GABA was again added evoking a response of similar amplitude and shape. […] Current traces were recorded at a digitization rate of 10 Hz during and shortly before and after the GABA application.
Each compound and concentration was tested on at least 3 oocytes. Different oocytes were used for different compound concentrations.
For the analysis, the digitized current traces of the first and second GABA response were superimposed and, if necessary, rescaled to equal maximal amplitudes. The ratio between the two responses during the time interval of test compound application was calculated point by point. The extremum of the resulting “ratio trace” was taken as the efficacy (“Fold increase”) of the compound expressed as “% modulation of GABA EC20” (100*(Fold increase−1)).

[2] = target: human GABAA α2β2γ1 receptor (Homo sapiens (Human), UniProt P47869+Q8N1C3); assay: Radioligand binding assay, competition for [3H]RO7239181, γ1-containing GABAA subtypes; details: for LogSel: Log of the γ2/γ1 Ki ratio
Experimental: The affinity of compounds at GABAA γ1 subunit-containing receptors was measured by competition for [^3H]RO7239181 (67.3 Ci/mmol; Roche) binding to membranes from HEK293F cells (ThermoFisher R79007) expressing human (transiently transfected) receptors of composition α5β2γ1, α2β2γ1, α1β2γ1.
Harvested pellets from HEK293F cells expressing the different GABAA receptor subtypes were resuspended in Mannitol Buffer pH 7.2-7.4 (Mannitol 0.29 M, Triethylamine 10 mM, Acetic acid 10 mM, EDTA 1 mM plus protease inhibitors (20 tablets Complete, Roche Diagnostics Cat. No. 05 056 489 001 per liter)), washed two times and then resuspended at 1:10 to 1:15 dilution in the same buffer. Cell disruption was performed by stirring the suspension in a Parr vessel #4637 at 435 psi for 15 minutes, and then the suspensions were centrifuged at 1000×g for 15 minutes at 4° C. (Beckman Avanti J-HC: rotor JS-4.2). The supernatant (S1) was transferred in a 21 Schott flask and the pellet (P1) was resuspended with Mannitol Buffer up to 175 ml. The resuspended pellet was transferred into a 250 ml Corning centrifugal beaker and centrifuged at 1500×g for 10 minutes at 4° C. (Beckman Avanti J-HC: rotor JS-4.2). The supernatant (S1) was then transferred in the 21 Schott flask and the pellet was discarded. The supernatants (S1) were centrifuged in 500 ml Beckman polypropylene centrifugal beaker at 15′000×g for 30 minutes at 4° C. (Beckman Avanti J-20 XP; rotor JLA-10.500). The pellet (P2) was resuspended with Mannitol Buffer 1:1 and frozen at −80° C. The supernatant (S2) was centrifuged in 100 ml Beckman polypropylene centrifugal tubes at 48000×g for 50 minutes at 4° C. (Beckman Avanti J-20 XP; rotor JA-18). The supernatant (S3) was discarded and the pellet (P3) was resuspended with 1:1 Mannitol Buffer. The P2 and P3 protein concentration was determined with the BIORAD Standard assay method with bovine serum albumin as standard and measured on the NANO-Drop 1000. The membrane suspension was aliquots (500 μl per tube) and stored at −80° C. until required.
Membrane homogenates were resuspended and polytronised (Polytron PT1200E Kinematica AG) in Potassium Phosphate 10 mM, KCl 100 mM binding buffer at pH 7.4 to a final assay concentration determined with a previous experiment.
Assays were incubated to equilibrium for 1 hour at 4° C. and then, membranes were filtered onto unifilter (96-well white microplate with bonded GF/C filters preincubated 20-50 minutes in 0.3% Polyethylenimine) with a Filtermate 196 harvester (Packard BioScience) and washed 4 times with cold Potassium Phosphate 10 mM pH 7.4, KCl 100 mM binding buffer. After anhydrousing, filter-retained radioactivity was detected by liquid scintillation counting. Ki values were calculated using Excel-Fit (Microsoft) and are the means of two determinations.

[3] = Table 1, [3H]Flumazenil displacement, HEK293F cells, mean of two determinations
[4] = Ki h-GABAA α2β2γ1, Table 1, [3H]RO7239181 displacement, membranes from HEK293F cells, mean of two determinations
[5] = Ki h-GABAA α2β2γ1, Table 2, [3H]RO7239181 displacement
[6] = Table 1, Ki α1β3γ2 (nM)/Ki α2β2γ1 (nM)

Compound: C[C@@H]1N=C(c2c(F)cccc2F)c2c(cnc(C(F)(F)F)c2Cl)-n2nc(C(=O)N3CC(C)(O)C3)nc21 [Example 10, [(7S)-11-chloro-9-(2,6-difluorophenyl)-7-methyl-12-(trifluoromethyl)-2,3,5,8,13-pentazatricyclo[8.4.0.02,6]tetradeca-1(10),3,5,8,11,13-hexaen-4-yl]-(3-hydroxy-3-methyl-azetidin-1-yl)methanone]
- Ki [1, 3]: 4610 nM
- Ki ([1]; Table 3, reference compounds comparison): 4610 nM
- Efficacy (GABA) % (h-GABA-A α2β2γ1): 82%
- Fold increase h-GABA-A α2β2γ1 oocyte @ 30-fold Ki (h-GABA-A α2β2γ1): 1.82
- Ki [2, 4]: 14.3 nM
- Ki [2, 5]: 14.3 nM
- Ki ([2]; Ki h-GABAA α2β2γ1, Table 3, reference compounds comparison): 14.3 nM
- γ2/γ1 Selectivity Ratio [2, 6]: 321
- LogSel ([2]; Table 1): 2.51
- γ2/γ1 Selectivity Ratio ([2]; Table 3, Ki α1β3γ2/Ki α2β2γ1): 321
- LogSel ([2]; Table 3): 2.5

Compound: C[C@@H]1N=C(c2c(F)cccc2F)c2c(cnc(C(F)(F)F)c2Cl)-n2nc(C(=O)N3CCS(=O)(=O)CC3)nc21 [Example 11, [(7S)-11-chloro-9-(2,6-difluorophenyl)-7-methyl-12-(trifluoromethyl)-2,3,5,8,13-pentazatricyclo[8.4.0.02,6]tetradeca-1(10),3,5,8,11,13-hexaen-4-yl]-(1,1-dioxo-1,4-thiazinan-4-yl)methanone]
- Ki [1, 3]: 7890 nM
- Efficacy (GABA) % (h-GABA-A α2β2γ1): 114%
- Fold increase h-GABA-A α2β2γ1 oocyte @ 30-fold Ki (h-GABA-A α2β2γ1): 2.14
- Ki [2, 4]: 9.6 nM
- Ki [2, 5]: 9.6 nM
- γ2/γ1 Selectivity Ratio [2, 6]: 818
- LogSel ([2]; Table 1): 2.91

Compound: C[C@@H]1N=C(c2c(F)cccc2F)c2c(cnc(C(F)(F)F)c2Cl)-n2nc(NC(=O)C3COC3)nc21 [Example 12, N-[(7S)-11-chloro-9-(2,6-difluorophenyl)-7-methyl-12-(trifluoromethyl)-2,3,5,8,13-pentazatricyclo[8.4.0.02,6]tetradeca-1(10),3,5,8,11,13-hexaen-4-yl]oxetane-3-carboxamide]
- Ki [1, 3]: 12300 nM
- Efficacy (GABA) % (h-GABA-A α2β2γ1): 143%
- Fold increase h-GABA-A α2β2γ1 oocyte @ 30-fold Ki (h-GABA-A α2β2γ1): 2.43
- Ki [2, 4]: 69.2 nM
- Ki [2, 5]: 69.2 nM
- γ2/γ1 Selectivity Ratio [2, 6]: 178
- LogSel ([2]; Table 1): 2.25

Compound: C[C@@H]1N=C(c2c(F)cccc2F)c2c(cnc(C(F)(F)F)c2Cl)-n2nc(N3CCCC3=O)nc21 [Example 13, 1-[(7S)-11-chloro-9-(2,6-difluorophenyl)-7-methyl-12-(trifluoromethyl)-2,3,5,8,13-pentazatricyclo[8.4.0.02,6]tetradeca-1(10),3,5,8,11,13-hexaen-4-yl]pyrrolidin-2-one]
- Ki [1, 3]: 5300 nM
- Efficacy (GABA) % (h-GABA-A α2β2γ1): 173%
- Fold increase h-GABA-A α2β2γ1 oocyte @ 30-fold Ki (h-GABA-A α2β2γ1): 2.73
- Ki [2, 4]: 32 nM
- Ki [2, 5]: 32 nM
- γ2/γ1 Selectivity Ratio [2, 6]: 166
- LogSel ([2]; Table 1): 2.22

Compound: C[C@H](O)CNC(=O)c1nc2n(n1)-c1cnc(C(F)(F)F)c(Cl)c1C(c1c(F)cccc1F)=N[C@H]2C [Example 14, (7S)-11-chloro-9-(2,6-difluorophenyl)-N-[(2S)-2-hydroxypropyl]-7-methyl-12-(trifluoromethyl)-2,3,5,8,13-pentazatricyclo[8.4.0.02,6]tetradeca-1(10),3,5,8,11,13-hexaene-4-carboxamide]
- Ki [1, 3]: 8760 nM
- Efficacy (GABA) % (h-GABA-A α2β2γ1): 158%
- Fold increase h-GABA-A α2β2γ1 oocyte @ 30-fold Ki (h-GABA-A α2β2γ1): 2.58
- Ki [2, 4]: 46 nM
- Ki [2, 5]: 39.2 nM
- γ2/γ1 Selectivity Ratio [2, 6]: 190
- LogSel ([2]; Table 1): 2.28

Compound: C[C@@H]1N=C(c2c(F)cccc2F)c2c(cnc(C(F)(F)F)c2Cl)-n2nc(C(=O)NCCO)nc21 [Example 15, (7S)-11-chloro-9-(2,6-difluorophenyl)-N-(2-hydroxyethyl)-7-methyl-12-(trifluoromethyl)-2,3,5,8,13-pentazatricyclo[8.4.0.02,6]tetradeca-1(10),3,5,8,11,13-hexaene-4-carboxamide]
- Ki [1, 3]: 9470 nM
- Efficacy (GABA) % (h-GABA-A α2β2γ1): 146%
- Fold increase h-GABA-A α2β2γ1 oocyte @ 30-fold Ki (h-GABA-A α2β2γ1): 2.46
- Ki [2, 4]: 34.5 nM
- Ki [2, 5]: 36.5 nM
- γ2/γ1 Selectivity Ratio [2, 6]: 275
- LogSel ([2]; Table 1): 2.44

Compound: C[C@@H]1N=C(c2c(F)cccc2F)c2c(cnc(C(F)(F)F)c2Cl)-n2nc(C(=O)NC[C@@H](C)O)nc21 [Example 16, (7S)-11-chloro-9-(2,6-difluorophenyl)-N-[(2R)-2-hydroxypropyl]-7-methyl-12-(trifluoromethyl)-2,3,5,8,13-pentazatricyclo[8.4.0.02,6]tetradeca-1(10),3,5,8,11,13-hexaene-4-carboxamide]
- Ki [1, 3]: 9470 nM
- Efficacy (GABA) % (h-GABA-A α2β2γ1): 166%
- Fold increase h-GABA-A α2β2γ1 oocyte @ 30-fold Ki (h-GABA-A α2β2γ1): 2.66
- Ki [2, 4]: 39.8 nM
- Ki [2, 5]: 35.3 nM
- γ2/γ1 Selectivity Ratio [2, 6]: 238
- LogSel ([2]; Table 1): 2.38

Compound: Cc1nnc2n1-c1cnc(C(F)(F)F)c(Cl)c1C(c1c(F)cccc1Cl)=N[C@H]2C [Example 17, (7S)-11-chloro-9-(2-chloro-6-fluoro-phenyl)-3,7-dimethyl-12-(trifluoromethyl)-2,4,5,8,13-pentazatricyclo[8.4.0.02,6]tetradeca-1(10),3,5,8,11,13-hexaene]
- Ki [1, 3]: 4870 nM
- Efficacy (GABA) % (h-GABA-A α2β2γ1): 91%
- Fold increase h-GABA-A α2β2γ1 oocyte @ 30-fold Ki (h-GABA-A α2β2γ1): 1.91
- Ki [2, 4]: 22.6 nM
- Ki [2, 5]: 21 nM
- γ2/γ1 Selectivity Ratio [2, 6]: 215
- LogSel ([2]; Table 1): 2.33
